For one assay, the system named is Alternaria solani. As to the kind of experiment: Example A: Alternaria test (tomato)/protective. To be noted: protective, 500 ppm, evaluation 7 days after inoculation. Type of assay: in vivo. The procedure:
Solvent: 49 parts by weight of N,N-dimethylformamide Emulsifier: 1 part by weight of alkylaryl polyglycol ether To produce a suitable preparation of active compound, 1 part by weight of active compound is mixed with the stated amounts of solvent and emulsifier, and the concentrate is diluted with water to the desired concentration. […] The plants then remain at 96% rel. atmospheric humidity and a temperature of 20° C.

The subject of assay [1] is Sphaerotheca fuliginea. As to the kind of experiment: Example B: Sphaerotheca test (cucumber)/protective. Type of assay: in vivo. The following applies: protective, 500 ppm, evaluation 7 days after inoculation. How it is done: Solvent: 49 parts by weight of N,N-dimethylformamide Emulsifier: 1 part by weight of alkylaryl polyglycol ether To produce a suitable preparation of active compound, 1 part by weight of active compound is mixed with the stated amounts of solvent and emulsifier, and the concentrate is diluted with water to the desired concentration. To test for protective activity, young cucumber plants are sprayed with the preparation of active compound at the stated application rate. 1 day after the treatment, the plants are inoculated with a spore suspension of Sphaerotheca fuliginea. The plants are then placed in a greenhouse at 70% relative air humidity and a temperature of 23° C.

Assay [2] relates to Blumeria graminis f.sp. hordei. As to the kind of experiment: Example G: Blumeria graminis test (barley)/protective. Type of assay: in vivo. To be noted: protective, 500 ppm, evaluation 7 days after inoculation. The procedure:
Solvent: 49 parts by weight of N,N-dimethylacetamide Emulsifier: 1 part by weight of alkylaryl polyglycol ether To produce a suitable preparation of active compound, 1 part by weight of active compound is mixed with the stated amounts of solvent and emulsifier, and the concentrate is diluted with water to the desired concentration. To test for protective activity, young plants are sprayed with the preparation of active compound at the stated application rate. After the spray coating has dried on, the plants are dusted with spores of Blumeria graminis f.sp. hordei.

The next assay concerns Leptosphaeria nodorum. As to the kind of experiment: Example H: Leptosphaeria nodorum test (wheat)/protective. The following applies: protective, 500 ppm, evaluation 8 days after inoculation. The assay is classed as in vivo. How it is done: Solvent: 49 parts by weight of N,N-dimethylacetamide Emulsifier: 1 part by weight of alkylaryl polyglycol ether To produce a suitable preparation of active compound, 1 part by weight of active compound is mixed with the stated amounts of solvent and emulsifier, and the concentrate is diluted with water to the desired concentration. To test for protective activity, young plants are sprayed with the preparation of active compound at the stated application rate. After the spray coating has dried on, the plants are sprayed with a spore suspension of Leptosphaeria nodorum.

A further assay deals with Pyrenophora teres. As to the kind of experiment: Example K: Pyrenophora teres test (barley)/protective. To be noted: protective, 500 ppm, evaluation 8 days after inoculation. The assay is classed as in vivo. The procedure: Solvent: 49 parts by weight of N,N-dimethylacetamide Emulsifier: 1 part by weight of alkylaryl polyglycol ether To produce a suitable preparation of active compound, 1 part by weight of active compound is mixed with the stated amounts of solvent and emulsifier, and the concentrate is diluted with water to the desired concentration. To test for protective activity, young plants are sprayed with the preparation of active compound at the stated application rate. After the spray coating has dried on, the plants are sprayed with a spore suspension of Pyrenophora teres.

For a further assay, the system named is Puccinia triticina. As to the kind of experiment: Example L: Puccinia triticina test (wheat)/protective. To be noted: protective, 500 ppm, evaluation 8 days after inoculation. Type of assay: in vivo. How it is done: Solvent: 49 parts by weight of N,N-dimethylacetamide Emulsifier: 1 part by weight of alkylaryl polyglycol ether To produce a suitable preparation of active compound, 1 part by weight of active compound is mixed with the stated amounts of solvent and emulsifier, and the concentrate is diluted with water to the desired concentration. To test for protective activity, young plants are sprayed with the preparation of active compound at the stated application rate. After the spray coating has dried on, the plants are sprayed with spores with a spore suspension of Puccinia triticina.

The next assay has as its system Fusarium graminearum. The assay is classed as in vivo. The following applies: barley (heading), protective, 500 ppm, evaluation 5 days after inoculation.
Another assay relates to Phytophthora infestans. Type of assay: in vivo. To be noted: tomato, preventative, 500 ppm, evaluation 5 days after inoculation.
The next assay has as its system Puccinia recondita. As to the kind of experiment: Example T: preventative in vivo test with Puccinia recondita (brown rust on wheat). The following applies: 500 ppm, evaluation 10 days after inoculation.
The test system of assay [3] is Sphaerotheca fuliginea. As to the kind of experiment: Example V: preventative in vivo test with Sphaerotheca fuliginea (powdery mildew on cucumber). The following applies: 500 ppm, evaluation 12 days after inoculation.
Assay [4] deals with Uromyces appendiculatus. As to the kind of experiment: Example W: preventative in vivo test with Uromyces appendiculatus (bean rust). To be noted: 500 ppm, evaluation 10 days after inoculation.
Assay [5] has as its system Uromyces appendiculatus. As to the kind of experiment: Example Y: Uromyces test (beans)/protective, comparison. Type of assay: in vivo. The following applies: protective, application rate 10 ppm, evaluation 10 days after inoculation. The procedure: Solvents: 24.5 parts by weight of acetone • 24.5 parts by weight of dimethylacetamide Emulsifier: 1 part by weight of alkylaryl polyglycol ether To produce a suitable preparation of active compound, 1 part by weight of active compound is mixed with the stated amounts of solvent and emulsifier, and the concentrate is diluted with water to the desired concentration. To test for protective activity, young plants are sprayed with the preparation of active compound at the stated application rate. […] The plants are then placed in a greenhouse at about 21° C. and a relative atmospheric humidity of about 90%.

Each structure is given as a SMILES string.

For `OC(Cc1ccccc1Cl)(Cn1ccnc1I)C1(Cl)CC1` (stereo not drawn) [Example 1, 2-(1-chlorocyclopropyl)-1-(2-chlorophenyl)-3-(2-iodo-1H-imidazol-1-yl)propan-2-ol], the Eff. % is reported as 88% in the assay on Alternaria solani; 80% in the assay with Sphaerotheca fuliginea [1]; 100% in assay [2]; 100% with Leptosphaeria nodorum; 100% in the assay with Pyrenophora teres; 100% with Puccinia triticina. Also, the Eff. % in the assay with Fusarium graminearum is listed as 100%. In addition, the Efficacy % in the assay with Phytophthora infestans, in the assay on Puccinia recondita, in the assay on Sphaerotheca fuliginea [3] and with Uromyces appendiculatus [4] was 100% throughout. Also, the Efficacy in % in the assay on Uromyces appendiculatus [5] is reported as 100%.
